The values that follow come from patent US20060094693A1, “Methods and compositions for treating glucose-associated conditions, metabolic syndrome, dyslipidemias and other conditions” (Point Therapeutics, Inc., priority 2004, published 2006).

Data set [1] deals with T1, soluble recombinant human DPP-IV (Homo sapiens, UniProt P27487).
T1 construct: immunoglobulin kappa light chain secretion signal (pSecTag2-B) (N, cleaved yes); made in house; host or cells: 293T cells, transient transfection; unpurified culture supernatant used
As to the kind of experiment: In vitro assay of enzymatic activity of recombinant soluble DPP-IV and inhibition by amino boronic dipeptides. In kind it is biochemical. Particulars: assayed 3 minutes, 78 minutes and 16 hours after addition of Ala-Pro-AFC. The text has this: Production of soluble recombinant human DPP-IV. Based on information on the N-terminus of serum DPP-IV (15), a truncated DPP-IV was engineered in which a signal/leader sequence was joined to the residue in DPP-IV corresponding to the N-terminus of serum DPP-IV to allow secretion. The cDNA encoding the desired truncated human DPP-IV dimer enzyme was engineered into the mammalian secretion vector pSecTag2 (Cat# V900-20, InVitrogen Corporation). The vector, available in A, B or C versions, representing three possible phases for gene fusion, contained an immunoglobulin-kappa light chain secretion signal followed by a selection of restriction sites for gene insertion. The fusion required engineering a restriction site upstream of the chosen fusion amino acid in the 5′ end of the DPP-IV dimer enzyme nucleic acid in phase with the chosen restriction site (Sfi I) in the vector secretion sequence. The chosen fusion amino acid in the 5′ end of the DPP-IV (Ser39) was 3′ of the trans-membrane anchoring domain. The pSecTag2 version B and its Sfi I restriction site was chosen for the fusion because it minimizes the additional N-terminal, vector-encoded residues in the mature secreted protein.
Construction of the fusion was as follows. First, total RNA was isolated from the Caco-2 colorectal carcinoma cell line (ATCC HTB-37) by standard Trizol/phenol/chloroform methodology. The purified RNA (approx. 2.5 μg in a 20 μl reaction) was used to make cDNA using oligo-dT primer and a commercial reverse transcription (RT) kit (InVitrogen). […] The following thermal cycler program was used: 94° C. for 45 sec. initial denaturation, then 30 cycles of 94° C., 10 sec.; 48° C., 6 sec.; 60° C., 4 min; followed by 5-min. extension at 72° C. after cycling.
DNA from the plasmid encoding DPP-IV dimer enzyme was prepared on an approximately 400 μg scale from overnight 30 ml cultures in Luria broth with 100 μg ampicillin per ml using a commercial kit (Qiagen Maxiprep Kit).
In vitro assay of enzmatic activity ofrecombinant soluble DPP-IV and inhibition by amino boronic dipeptides. The assay reaction mixture consisted of 135 μl 50 mM HEPES/Na buffer pH 7.6, 140 mM NaCl, 10-15 gl enzyme-containing culture supernatant, dipeptide substrate Ala-Pro-(7-amino-4-trifluoromethyl coumarin) (Ala-Pro-AFC; Enzyme System Products, Dublin, Calif.) at typically 0.1-1 mM added from a 100 or 400 mM stock in dimethyl formamide. The reaction mixture was incubated at room temperature, and production of the fluorescent AFC product was measured in a fluorometer (excitation, 400 nm; emission 505 nm), either by continuous monitoring or after termination with a one to one-tenth volume of 1 -M sodium acetate, pH 4.5. Fluorometric reading were made with a Molecular Dynamics Spectra Max GeminiXS capable of reading 96-well microtiter plates. The inhibitory activity of amino boronic dipeptides was investigated by preincubation of assay reaction mixtures with varying concentrations of each compound for 10 minutes before the addition of the substrate Ala-Pro-AFC.

The target in data set [2] is T2, serum DPP-IV (Mus musculus, UniProt P28843).
T2 construct: from tissue; host or cells: serum of BALB/c mice dosed orally
As to the kind of experiment: Serum DPP-IV inhibition in vivo after oral gavage (Example 2). More on the design: species or system BALB/c mice. As for the experimental part: Assay of serum DPP-IV inhibition in vivo. […] DPP-IV activity was determined by reaction of 10 μl serum with 90 μl of 0.11 mM Ala-Pro-AFC (Enzyme System Products, Dublin, Calif.) in 50 mM HEPES/Na buffer pH 7.6, 140 mM NaCl.

Data set [3] addresses T2, serum DPP-IV. As to the kind of experiment: Serum DPP-IV activity 2 hours after oral amino boronic dipeptides (Example 4). In kind it is in vivo, BALB/c mice. Particulars: 20 and 200 μg doses. The protocol:
(§1) Assay ofserum DPP-IV inhibition and KC/CXCL1 levels in vivo. […] Each mouse received a single administration of each amino boronic dipeptide or saline, and blood samples were withdrawn from mice 2 hours later.
Serum DPP-IV activity was determined by reaction of a 10 μl volume of serum with 0.1 mM Ala-Pro-AFC (Enzyme System Products, Dublin, Calif.) in a 100 μl volume of 50 mM HEPES/Na buffer pH 7.6, 140 mM NaCl. […] Serum DPP-IV activity was expressed as fluorescent units (FU).

Data set [4] deals with serum KC/CXCL1. The data set can be described thus: Serum KC/CXCL1 levels in vivo (ELISA). Further details: species or system BALB/c mice. Particulars: 0.2-200 μg/mouse oral, 2 hours. The protocol: as §1
Serum concentration of mouse KC/CXCL1 was determined by Quantikine enzyme-linked immunosorbent assay (ELISA; R&D Systems, Minneapolis, Minn.) according to the manufacturer's instructions. ELISA was performed in duplicate for each sample.

Data set [5] can be described thus: in vivo. Particulars: Lewis, rat, in vivo.
Protocol: (§2) Serum DPP-IV inhibition and observation of acute toxicity of amino boronic dipeptides in Lewis rats. […] After observations were completed or at the onset of a moribund state, humane euthanasia was performed by asphyxiation in 100% CO2.
The subject of data set [6] is Lewis rats. The data set can be described thus: in vivo. Particulars: Lewis, rat, in vivo, 5 days.
Protocol: as §2
Data set [7] relates to ob/ob mice. The data set can be described thus: Mouse oral glucose tolerance test (OGTT). In kind it is in vivo. As for the experimental part: Protocol for mouse oral glucose tolerance test (OGTT). The day of oral-glucose challenge was defined as day 0. […] Agents were administered by oral gavage. Mice were restricted to a diet of 50% of their individual calculated food intake from day −1 onwards. On day 0, blood glucose was measured at […]. immediately followed by drug administration. At time point 0, glucose was administered by oral gavage (1g/kg), and blood glucose was measured at time points 0, 30, 60, 120 and 240 minutes. Means±SE were calculated from the data of individual mice in drug-treatment groups 1 and 2.

Data set [8] has as its system Zucker fa/fa rats. The data set can be described thus: Rat oral glucose tolerance test (glucose, insulin, GLP-1). In kind it is in vivo. Particulars: 10 μmol/kg oral. The text has this: Protocol for rat oral glucose tolerance test (OG7T). […] On days −11 to −8, rats were fitted with intra-arterial catheters under light isoflurane anesthesia. […] From 12:00 a.m.
The test system of data set [9] is Zucker Diabetic Fatty (ZDF) rats. As to the kind of experiment: 6 week glycemic control study in Zucker Diabetic Fatty rats. In kind it is in vivo. The protocol: The design of the 6 week long study is depicted in FIG. 8. 60 male Zucker Diabetic Fatty (ZDF) rats (5 weeks of age) were obtained from Charles River Labs. The animals are housed singly and allowed to acclimatize for 1 week before the initiation of the study. 24-hour food intake and body weight was measured gravimetrically twice weekly from the start of housing. HbA1C levels were measured at Day 0, 7, 14, 28 and 46. OGTT was administered on Day 2-3, 15 minutes after the administration of the drugs. OGTT was administered again at the end of the study but in this case, drugs were given 15 hours prior to the OGTT. The 24-hour glucose profile was monitored at day 14-15 of the study.
The insulin sensitivity index was calculated at the termination of the study according to the method described by Matsuda and DeFronzo (Diabetes Care. 1999 Sep.;22(9):1462-70).

The test system of data set [10] is Zucker fa/fa rats. The data set can be described thus: Single oral dose before oral glucose challenge, Zucker Fa/Fa rats (Example 10). In kind it is in vivo. Conditions: single oral dose 15 minutes prior to oral glucose. The text has this: The data shown in FIG. 15 are mean values from 6 rats per treatment.
The test system of data set [11] is DIO rats. The data set can be described thus: Single oral dose before oral glucose challenge, DIO rats (Example 10). In kind it is in vivo. Particulars: single oral dose 15 minutes prior to oral glucose. The source says: The data shown in FIG. 16A are mean values from 10 rats per treatment.
The data shown in FIG. 16B are mean values from 10 rats per treatment.

T2 sequence (P28843 37-760 limits assumed): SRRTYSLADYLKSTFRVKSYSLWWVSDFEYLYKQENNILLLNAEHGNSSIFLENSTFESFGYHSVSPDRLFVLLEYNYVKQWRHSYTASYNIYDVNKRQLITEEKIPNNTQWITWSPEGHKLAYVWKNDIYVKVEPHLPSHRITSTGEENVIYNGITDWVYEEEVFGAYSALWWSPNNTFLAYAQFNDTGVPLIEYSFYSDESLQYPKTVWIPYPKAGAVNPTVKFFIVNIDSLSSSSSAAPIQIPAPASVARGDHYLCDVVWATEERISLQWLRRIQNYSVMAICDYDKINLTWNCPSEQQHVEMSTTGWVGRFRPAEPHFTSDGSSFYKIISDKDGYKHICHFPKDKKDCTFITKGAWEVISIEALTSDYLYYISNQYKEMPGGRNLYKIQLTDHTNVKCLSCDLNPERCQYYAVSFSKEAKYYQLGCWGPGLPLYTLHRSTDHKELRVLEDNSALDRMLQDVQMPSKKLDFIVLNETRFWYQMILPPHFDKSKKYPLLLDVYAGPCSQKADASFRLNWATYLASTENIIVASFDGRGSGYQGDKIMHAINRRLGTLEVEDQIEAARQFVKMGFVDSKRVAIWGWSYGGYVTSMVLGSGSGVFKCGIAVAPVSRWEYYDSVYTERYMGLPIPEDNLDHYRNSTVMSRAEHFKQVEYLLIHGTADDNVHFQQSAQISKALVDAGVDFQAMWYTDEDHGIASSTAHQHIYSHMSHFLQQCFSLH
T1 sequence (P27487 39-766 limits assumed): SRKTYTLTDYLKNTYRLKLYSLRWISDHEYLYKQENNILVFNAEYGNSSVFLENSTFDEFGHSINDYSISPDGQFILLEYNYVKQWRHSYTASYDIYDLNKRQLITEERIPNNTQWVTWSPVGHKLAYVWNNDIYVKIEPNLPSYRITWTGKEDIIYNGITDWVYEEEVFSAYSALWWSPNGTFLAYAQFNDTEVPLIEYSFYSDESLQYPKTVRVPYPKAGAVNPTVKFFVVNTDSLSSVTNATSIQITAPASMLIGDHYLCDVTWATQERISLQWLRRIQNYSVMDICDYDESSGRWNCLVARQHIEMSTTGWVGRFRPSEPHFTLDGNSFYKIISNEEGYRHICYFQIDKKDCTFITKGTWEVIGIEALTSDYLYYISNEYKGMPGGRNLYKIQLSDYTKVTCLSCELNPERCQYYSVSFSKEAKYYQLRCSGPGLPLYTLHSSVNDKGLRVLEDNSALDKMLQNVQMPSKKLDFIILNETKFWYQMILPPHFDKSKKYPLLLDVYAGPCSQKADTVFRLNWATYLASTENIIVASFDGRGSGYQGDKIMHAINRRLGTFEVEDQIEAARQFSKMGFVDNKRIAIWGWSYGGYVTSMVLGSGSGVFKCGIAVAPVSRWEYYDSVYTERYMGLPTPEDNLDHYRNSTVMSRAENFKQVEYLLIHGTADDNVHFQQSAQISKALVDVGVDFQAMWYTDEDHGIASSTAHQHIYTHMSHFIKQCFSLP

In the case of `N[C@@H](CCC(=O)O)C(=O)N1CCC[C@H]1B(O)O` [Glu-boroPro, glutamic acid boroproline], the “persistence of DPP-IV inhibition after preincubation” value in data set [1] was “sustained DPP-IV inhibition”. In addition, the “ID50 (dose reducing serum DPP-IV activity by 50% of baseline)” value in data set [2] (BALB/c mice, single oral dose, 2 hours) is on record as 1 μg per mouse. For the same molecule, the “serum DPP-IV inhibition persisting” value in [2] (single oral 5 μg or 20 μg per mouse, until at least 6 hours) is “greater than 80%”. Further, the “serum DPP-IV activity” value in data set [3] is on record as “maximally inhibited serum DPP-IV activity”. For the same molecule, the “serum levels of KC/CXCL1” value in data set [4] is “failed to affect serum levels of KC/CXCL1 at any of the doses tested”. In [5], the MTD at 5 days is 15 mg/kg. The “MTD (maximum tolerated dose)” value in data set [6] is 15,000 μg/kg. For the same molecule, the “glucose excursion post oral glucose challenge” value in [7] (1.0 μmol/kg oral, 15 minutes prior to glucose) was “reduced”. The “anti-glycemic effect, area under the blood glucose curve” value in data set [7] (single 1.0 μmol/kg dose) is reported as “significant”. In addition, the blood glucose excursion entry in [8] (15 min before glucose 2 g/kg) is given as “reduced”. Moreover, in data set [8] (after oral glucose challenge), the “blood plasma level of GLP-1” value is “increased”. Further, in [8] (after oral glucose challenge), the “blood plasma level of insulin” value is listed as “increased”. Also, the “AUC of 24 hour glucose profile” value in data set [9] (10 μmole/kg, day 14-15) is “achieve significance”. The “triglyceride (TG) lowering” value is recorded as “significant improvement” in data set [9] (3 micromole/kg, 46 days of treatment) and “significant improvement” in data set [9] (10 micromole/kg, 46 days of treatment). Moreover, the “food intake over time” value in data set [9] (10 micromole/kg) was “apparent slight decrease in food intake”. Moreover, the “HbA1C level compared to vehicle” value in [9] (10 micromole/kg, Day 46) was “significant reduction”. Moreover, the “OGTT glucose levels compared to vehicle” value in data set [9] (10 micromole/kg, OGTT 15 hours after drug, end of study) is on record as “significant reduction in glucose levels”. Moreover, in [9] (10 micromole/kg, day 14-15), the 24-hour glucose profile result was “improved compared to the metformin and the NVP-LAF237 groups”. Also, in [9] (10 micromoles/kg, Day 0 to Day 46), the “rate of increase in HbA1C over time” value is given as “decline in the rate of increase in HbA1C was most prominent”. Further, the “free fatty acids (FFA)” value in data set [9] (46 days of treatment, compared to vehicle) is reported as “trend towards free fatty acids (FFA) reduction but this did not reach significance”. Besides, the insulin response entry in data set [10] and in data set [11] was “improved insulin response” throughout. Moreover, the “insulin secretion calculated from AUC” value in data set [11] is reported as “increased insulin secretion”.
